BindingDB's records for doi:10.1016/j.bmcl.2004.04.032 (Bristol-Myers Squibb, 2004)

molecular target: T1, Thyroid hormone receptor alpha (Homo sapiens, UniProt P10827); assay: TRalpha-Binding Assay.; conditions: not given
T1 sequence (P10827 whole entry): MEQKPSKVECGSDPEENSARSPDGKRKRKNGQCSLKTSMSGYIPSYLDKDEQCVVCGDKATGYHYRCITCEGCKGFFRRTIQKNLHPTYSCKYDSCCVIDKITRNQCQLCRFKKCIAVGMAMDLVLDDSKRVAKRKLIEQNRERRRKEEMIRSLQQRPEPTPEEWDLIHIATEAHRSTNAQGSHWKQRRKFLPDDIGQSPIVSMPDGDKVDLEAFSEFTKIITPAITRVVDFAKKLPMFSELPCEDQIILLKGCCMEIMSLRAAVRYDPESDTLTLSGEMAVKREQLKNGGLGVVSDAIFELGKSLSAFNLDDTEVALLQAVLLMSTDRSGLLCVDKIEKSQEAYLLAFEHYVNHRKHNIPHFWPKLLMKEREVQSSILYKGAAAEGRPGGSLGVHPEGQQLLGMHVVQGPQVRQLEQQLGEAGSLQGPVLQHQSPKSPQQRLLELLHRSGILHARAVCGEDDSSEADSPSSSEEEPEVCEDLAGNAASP

Compound	IC50
O=C(O)Cc1cc(Br)c(Oc2ccc(O)c(C(=O)NCC(c3ccccc3)c3ccccc3)c2)c(Br)c1 [2-(3,5-dibromo-4-{3-[(2,2-diphenylethyl)carbamoyl]-4-hydroxyphenoxy}phenyl)acetic acid]	18 nM
O=C(O)Cc1cc(Br)c(Oc2ccc(O)c(Oc3ccccc3C(F)(F)F)c2)c(Br)c1 [2-(3,5-dibromo-4-{4-hydroxy-3-[2-(trifluoromethyl)phenoxy]phenoxy}phenyl)acetic acid]	244 nM
O=C(O)Cc1cc(Br)c(Oc2ccc(O)c(Oc3cccc(C(F)(F)F)c3)c2)c(Br)c1 [2-(3,5-dibromo-4-{4-hydroxy-3-[3-(trifluoromethyl)phenoxy]phenoxy}phenyl)acetic acid]	50 nM
O=C(O)Cc1cc(Br)c(Oc2ccc(O)c(Oc3ccc(C(F)(F)F)cc3)c2)c(Br)c1 [2-(3,5-dibromo-4-{4-hydroxy-3-[4-(trifluoromethyl)phenoxy]phenoxy}phenyl)acetic acid]	326 nM
O=C(O)Cc1cc(Br)c(Oc2ccc(O)c(C(=O)NCCc3ccccc3)c2)c(Br)c1 [2-(3,5-dibromo-4-{4-hydroxy-3-[(2-phenylethyl)carbamoyl]phenoxy}phenyl)acetic acid]	15 nM
O=C(O)Cc1cc(Br)c(Oc2ccc(O)c(C(=O)NCCCc3ccccc3)c2)c(Br)c1 [2-(3,5-dibromo-4-{4-hydroxy-3-[(3-phenylpropyl)carbamoyl]phenoxy}phenyl)acetic acid]	203 nM
O=C(O)Cc1cc(Br)c(Oc2ccc(O)c(C(=O)NCCCCc3ccccc3)c2)c(Br)c1 [2-(3,5-dibromo-4-{4-hydroxy-3-[(4-phenylbutyl)carbamoyl]phenoxy}phenyl)acetic acid]	281 nM
O=C(O)Cc1cc(Cl)c(Oc2ccc(O)c(C(=O)NCCc3ccccc3)c2)c(Cl)c1 [2-(3,5-dichloro-4-{4-hydroxy-3-[(2-phenylethyl)carbamoyl]phenoxy}phenyl)acetic acid]	127 nM
O=C(O)Cc1cc(Br)c(Oc2ccc(O)c(Oc3ccccc3)c2)c(Br)c1 [2-[3,5-dibromo-4-(4-hydroxy-3-phenoxyphenoxy)phenyl]acetic acid]	123 nM
COc1ccccc1CCNC(=O)c1cc(Oc2c(Br)cc(CC(=O)O)cc2Br)ccc1O [2-[3,5-dibromo-4-(4-hydroxy-3-{[2-(2-methoxyphenyl)ethyl]carbamoyl}phenoxy)phenyl]acetic acid]	96 nM
COc1cccc(CCNC(=O)c2cc(Oc3c(Br)cc(CC(=O)O)cc3Br)ccc2O)c1 [2-[3,5-dibromo-4-(4-hydroxy-3-{[2-(3-methoxyphenyl)ethyl]carbamoyl}phenoxy)phenyl]acetic acid]	93 nM
COc1ccc(CCNC(=O)c2cc(Oc3c(Br)cc(CC(=O)O)cc3Br)ccc2O)cc1 [2-[3,5-dibromo-4-(4-hydroxy-3-{[2-(4-methoxyphenyl)ethyl]carbamoyl}phenoxy)phenyl]acetic acid]	228 nM
O=C(O)Cc1cc(Br)c(Oc2ccc(O)c(C(=O)NCCc3ccccn3)c2)c(Br)c1 [2-[3,5-dibromo-4-(4-hydroxy-3-{[2-(pyridin-2-yl)ethyl]carbamoyl}phenoxy)phenyl]acetic acid]	1130 nM
O=C(O)Cc1cc(Br)c(Oc2ccc(O)c(Oc3ccccc3O)c2)c(Br)c1 [2-{3,5-dibromo-4-[4-hydroxy-3-(2-hydroxyphenoxy)phenoxy]phenyl}acetic acid]	1470 nM
O=C(O)Cc1cc(Br)c(Oc2ccc(O)c(Oc3cccc(O)c3)c2)c(Br)c1 [2-{3,5-dibromo-4-[4-hydroxy-3-(3-hydroxyphenoxy)phenoxy]phenyl}acetic acid]	549 nM
O=C(O)Cc1cc(Br)c(Oc2ccc(O)c(Oc3cccc(-c4ccccc4)c3)c2)c(Br)c1 [2-{3,5-dibromo-4-[4-hydroxy-3-(3-phenylphenoxy)phenoxy]phenyl}acetic acid]	499 nM
O=C(O)Cc1cc(Br)c(Oc2ccc(O)c(Oc3ccc(O)cc3)c2)c(Br)c1 [2-{3,5-dibromo-4-[4-hydroxy-3-(4-hydroxyphenoxy)phenoxy]phenyl}acetic acid]	237 nM
O=C(O)Cc1cc(Br)c(Oc2ccc(O)c(C(=O)Nc3ccccc3)c2)c(Br)c1 [2-{3,5-dibromo-4-[4-hydroxy-3-(phenylcarbamoyl)phenoxy]phenyl}acetic acid]	424 nM
O=C(O)Cc1cc(Br)c(Oc2ccc(O)c(C(=O)NCc3ccccc3)c2)c(Br)c1 [2-{4-[3-(benzylcarbamoyl)-4-hydroxyphenoxy]-3,5-dibromophenyl}acetic acid]	84 nM

same assay, conditions: pH 7; 4 °C

Compound	IC50
O=C(O)Cc1cc(Cl)c(Oc2ccc(O)c(-c3cccc(OC(F)F)c3)c2)c(Cl)c1 [2-(3,5-dichloro-4-{3-[3-(difluoromethoxy)phenyl]-4-hydroxyphenoxy}phenyl)acetic acid]	30 nM
O=C(O)Cc1cc(Cl)c(Oc2ccc(O)c(-c3ccccc3C(F)(F)F)c2)c(Cl)c1 [2-(3,5-dichloro-4-{4-hydroxy-3-[2-(trifluoromethyl)phenyl]phenoxy}phenyl)acetic acid]	18 nM
CC(C)c1cccc(-c2cc(Oc3c(Cl)cc(CC(=O)O)cc3Cl)ccc2O)c1 [2-(3,5-dichloro-4-{4-hydroxy-3-[3-(propan-2-yl)phenyl]phenoxy}phenyl)acetic acid]	124 nM
O=C(O)Cc1cc(Cl)c(Oc2ccc(O)c(-c3cccc(OC(F)(F)F)c3)c2)c(Cl)c1 [2-(3,5-dichloro-4-{4-hydroxy-3-[3-(trifluoromethoxy)phenyl]phenoxy}phenyl)acetic acid]	100 nM
O=C(O)Cc1cc(Cl)c(Oc2ccc(O)c(-c3cccc(C(F)(F)F)c3)c2)c(Cl)c1 [2-(3,5-dichloro-4-{4-hydroxy-3-[3-(trifluoromethyl)phenyl]phenoxy}phenyl)acetic acid]	40 nM
O=C(O)Cc1cc(Cl)c(Oc2ccc(O)c(-c3ccc(C(F)(F)F)cc3)c2)c(Cl)c1 [2-(3,5-dichloro-4-{4-hydroxy-3-[4-(trifluoromethyl)phenyl]phenoxy}phenyl)acetic acid]	515 nM
O=C(O)Cc1cc(Cl)c(Oc2ccc(O)c(C3CCCCC3)c2)c(Cl)c1 [2-[3,5-dichloro-4-(3-cyclohexyl-4-hydroxyphenoxy)phenyl]acetic acid]	258 nM
O=C(O)Cc1cc(Cl)c(Oc2ccc(O)c(-c3ccccc3)c2)c(Cl)c1 [2-[3,5-dichloro-4-(4-hydroxy-3-phenylphenoxy)phenyl]acetic acid]	152 nM
CCc1cccc(-c2cc(Oc3c(Cl)cc(CC(=O)O)cc3Cl)ccc2O)c1 [2-{3,5-dichloro-4-[3-(3-ethylphenyl)-4-hydroxyphenoxy]phenyl}acetic acid]	13 nM
O=C(O)Cc1cc(Cl)c(Oc2ccc(O)c(-c3nccs3)c2)c(Cl)c1 [2-{3,5-dichloro-4-[4-hydroxy-3-(1,3-thiazol-2-yl)phenoxy]phenyl}acetic acid]	558 nM
O=C(O)Cc1cc(Cl)c(Oc2ccc(O)c(-c3ccccc3O)c2)c(Cl)c1 [2-{3,5-dichloro-4-[4-hydroxy-3-(2-hydroxyphenyl)phenoxy]phenyl}acetic acid]	1050 nM
O=C(O)Cc1cc(Cl)c(Oc2ccc(O)c(-c3cccc(O)c3)c2)c(Cl)c1 [2-{3,5-dichloro-4-[4-hydroxy-3-(3-hydroxyphenyl)phenoxy]phenyl}acetic acid]	1160 nM
COc1cccc(-c2cc(Oc3c(Cl)cc(CC(=O)O)cc3Cl)ccc2O)c1 [2-{3,5-dichloro-4-[4-hydroxy-3-(3-methoxyphenyl)phenoxy]phenyl}acetic acid]	297 nM
O=C(O)Cc1cc(Cl)c(Oc2ccc(O)c(-c3cccc(-c4ccccc4)c3)c2)c(Cl)c1 [2-{3,5-dichloro-4-[4-hydroxy-3-(3-phenylphenyl)phenoxy]phenyl}acetic acid]	454 nM
O=C(O)Cc1cc(Cl)c(Oc2ccc(O)c(-c3ccc(O)cc3)c2)c(Cl)c1 [2-{3,5-dichloro-4-[4-hydroxy-3-(4-hydroxyphenyl)phenoxy]phenyl}acetic acid]	847 nM
O=C(O)Cc1cc(Cl)c(Oc2ccc(O)c(-c3ccccn3)c2)c(Cl)c1 [2-{3,5-dichloro-4-[4-hydroxy-3-(pyridin-2-yl)phenoxy]phenyl}acetic acid]	1520 nM
O=C(O)Cc1cc(Cl)c(Oc2ccc(O)c(-c3cccnc3)c2)c(Cl)c1 [2-{3,5-dichloro-4-[4-hydroxy-3-(pyridin-3-yl)phenoxy]phenyl}acetic acid]	819 nM
O=C(O)Cc1cc(Cl)c(Oc2ccc(O)c(-c3ccncc3)c2)c(Cl)c1 [2-{3,5-dichloro-4-[4-hydroxy-3-(pyridin-4-yl)phenoxy]phenyl}acetic acid]	145 nM
O=C(O)Cc1cc(Cl)c(Oc2ccc(O)c(-c3cncnc3)c2)c(Cl)c1 [2-{3,5-dichloro-4-[4-hydroxy-3-(pyrimidin-5-yl)phenoxy]phenyl}acetic acid]	269 nM
